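Tested at 5 concentrations; 48 h exposure; 96-well plates; endpoints linearly interpolated, else capped at highest concentration. Abbreviation: GI50, concentration required for 50% inhibition of growth. TGI: total growth inhibition.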
Assays:
Experiment in all cases: inhibition of tumour cell growth, NCI panel, 48 h
[1] = system: OVCAR-5 ovarian
[2] = system: ACHN renal
[3] = system: A549 NSCLC
[4] = system: MDA-MB-435
[5] = system: BT-549 breast
[6] = system: A498 renal
[7] = system: HCT-116 colon
[8] = system: SK-MEL-5 melanoma
[9] = system: UACC-257 melanoma
[10] = system: SK-OV-3 ovarian
[11] = system: SK-MEL-2 melanoma
[12] = system: MCF7 breast
[13] = system: SR leukemia
[14] = system: HOP-92 NSCLC
[15] = system: COLO 205 colon
[16] = system: NCI/ADR-RES ovarian
[17] = system: NCI-H522 lung
[18] = system: RPMI-8226 leukemia
[19] = system: U251 CNS
[20] = system: OVCAR-8 ovarian
[21] = system: M14 melanoma
[22] = system: SW-620 colon
[23] = system: IGROV1 ovarian
[24] = system: OVCAR-3 ovarian
[25] = system: HCC-2998 colon
[26] = system: HS 578T breast
[27] = system: 786-0 renal
[28] = system: MALME-3M melanoma
[29] = system: MOLT-4 leukemia
[30] = system: SK-MEL-28 melanoma
[31] = system: UO-31 renal
[32] = system: KM12 colon
[33] = system: SF-539 CNS
[34] = system: T-47D breast
[35] = system: HT29 colon
[36] = system: K-562 leukemia
[37] = system: SF-295 CNS
[38] = system: SN12C renal
[39] = system: CAKI-1 renal
[40] = system: HL-60(TB) leukemia
[41] = system: LOX IMVI melanoma
[42] = system: SNB-19 CNS
[43] = system: HOP-62 NSCLC
[44] = system: SNB-75 CNS
[45] = system: HCT-15 colon
[46] = system: DU-145 prostate
[47] = system: PC-3 prostate
[48] = system: TK-10 renal
[49] = system: NCI-H226 lung
[50] = system: RXF 393 renal
[51] = system: SF-268 CNS
[52] = system: UACC-62 melanoma
[53] = system: MDA-MB-231 breast
[54] = system: EKVX NSCLC
[55] = system: OVCAR-4 ovarian

SMILES: CCOC(=O)Cc1csc(NC(=O)COC(=O)c2ccc(N)cc2)n1
- GI50 [1]: 59.3 µM
- TGI [1]: > 100 µM
- GI50 [2]: > 100 µM
- TGI [2]: > 100 µM
- GI50 [3]: > 100 µM
- TGI [3]: > 100 µM
- GI50 [4]: > 100 µM
- TGI [4]: > 100 µM
- GI50 [5]: > 100 µM
- TGI [5]: > 100 µM
- GI50 [6]: > 100 µM
- TGI [6]: > 100 µM
- GI50 [7]: > 100 µM
- TGI [7]: > 100 µM
- GI50 [8]: 97.6 µM
- TGI [8]: > 100 µM
- GI50 [9]: > 100 µM
- TGI [9]: > 100 µM
- GI50 [10]: > 100 µM
- TGI [10]: > 100 µM
- GI50 [11]: > 100 µM
- TGI [11]: > 100 µM
- GI50 [12]: 97.9 µM
- TGI [12]: > 100 µM
- GI50 [13]: 13.4 µM
- TGI [13]: 45.2 µM
- GI50 [14]: 20.7 µM
- TGI [14]: 44.8 µM
- GI50 [15]: > 100 µM
- TGI [15]: > 100 µM
- GI50 [16]: > 100 µM
- TGI [16]: > 100 µM
- GI50 [17]: 18.8 µM
- TGI [17]: 40 µM
- GI50 [18]: 40.4 µM
- TGI [18]: > 100 µM
- GI50 [19]: > 100 µM
- TGI [19]: > 100 µM
- GI50 [20]: 95.7 µM
- TGI [20]: > 100 µM
- GI50 [21]: > 100 µM
- TGI [21]: > 100 µM
- GI50 [22]: > 100 µM
- TGI [22]: > 100 µM
- GI50 [23]: 21.8 µM
- TGI [23]: 49.8 µM
- GI50 [24]: 18.8 µM
- TGI [24]: 50.7 µM
- GI50 [25]: > 100 µM
- TGI [25]: > 100 µM
- GI50 [26]: > 100 µM
- TGI [26]: > 100 µM
- GI50 [27]: 23.8 µM
- TGI [27]: 56.9 µM
- GI50 [28]: > 100 µM
- TGI [28]: > 100 µM
- GI50 [29]: 28.5 µM
- TGI [29]: 81.4 µM
- GI50 [30]: > 100 µM
- TGI [30]: > 100 µM
- GI50 [31]: 76.6 µM
- TGI [31]: > 100 µM
- GI50 [32]: > 100 µM
- TGI [32]: > 100 µM
- GI50 [33]: 19.3 µM
- TGI [33]: 37 µM
- GI50 [34]: 75.4 µM
- TGI [34]: > 100 µM
- GI50 [35]: 56.9 µM
- TGI [35]: > 100 µM
- GI50 [36]: 88.3 µM
- TGI [36]: > 100 µM
- GI50 [37]: > 100 µM
- TGI [37]: > 100 µM
- GI50 [38]: > 100 µM
- TGI [38]: > 100 µM
- GI50 [39]: > 100 µM
- TGI [39]: > 100 µM
- GI50 [40]: 20 µM
- TGI [40]: 41.3 µM
- GI50 [41]: 14.1 µM
- TGI [41]: 34.6 µM
- GI50 [42]: > 100 µM
- TGI [42]: > 100 µM
- GI50 [43]: > 100 µM
- TGI [43]: > 100 µM
- GI50 [44]: 54.4 µM
- TGI [44]: > 100 µM
- GI50 [45]: > 100 µM
- TGI [45]: > 100 µM
- GI50 [46]: > 100 µM
- TGI [46]: > 100 µM
- GI50 [47]: 68.4 µM
- TGI [47]: > 100 µM
- GI50 [48]: > 100 µM
- TGI [48]: > 100 µM
- GI50 [49]: > 100 µM
- TGI [49]: > 100 µM
- GI50 [50]: > 100 µM
- TGI [50]: > 100 µM
- GI50 [51]: 23.6 µM
- TGI [51]: 60 µM
- GI50 [52]: > 100 µM
- TGI [52]: > 100 µM
- GI50 [53]: > 100 µM
- TGI [53]: > 100 µM
- GI50 [54]: > 100 µM
- TGI [54]: > 100 µM
- GI50 [55]: 72 µM
- TGI [55]: > 100 µM
